These results are taken from BindingDB's records for doi:10.1016/j.bmcl.2014.04.013 (University of Utah, 2014).

The assay is described as follows: Agonist activity at AHR in FVB/N mouse primary mammary epithelial cells assessed as blockade of mammary branching morphogenesis after 144 hrs by microscopic analysis in presence of FGF2.

For `Clc1ccc(-c2nc(-c3ccccc3)no2)c(Cl)c1`, the half-maximal effective concentration (EC50) was 1200 nM.

In the case of `Nc1cc(Cl)ccc1-c1nc(-c2ccccc2)no1`, the EC50 turned out to be 1400 nM. `O=[N+]([O-])c1cc(F)ccc1-c1nc(-c2ccccc2)no1`: the EC50 stood at 2200 nM. In the case of `Nc1cc(C(F)(F)F)ccc1-c1nc(-c2ccccc2)no1` it was 3200 nM. As for `Clc1ccc(-c2nc(-c3ccccc3)no2)c(Cl)c1Cl`, the figure is more than 10000 nM.

One may read the EC50 as the concentration that produces a half-maximal response.
